# Data reported in patent publication US4613355A, “Antibiotic having herbicidal activity” (Satoshi Omura, priority 1983, dated 1986).
# Structures can show the parent of a compound that is named as a salt.
# Experiments:
# Type in all cases: in vivo
# Set-up in all cases: key: 0 indicates no effect; 5 indicates complete kill
# [1] = system: various weeds and brush (overall evaluation); assay: Foliage treatment of naturally growing weeds and brush (Example 9); conditions: OE overall evaluation, One month
# Description: (§1) Aqueous solutions of Phosalacine (Na salt) at different concentrations and 0.1% of octylphenylpolyoxy ethanol as surfactant were applied to the area where various weeds and brush were naturally growing at a rate of 1500 liter per hectare. One month after the foliage treatment, damage to weeds and brush was visually assessed on a scale of from 0 to 5 where 0 indicates no effect and 5 indicates complete kill as hereinbefore defined.
# Smilax china = assay: as above; conditions: Plant No. 17 Smilax china, One month
# Description: as §1
# Zanthoxylum piperitum = assay: as above; conditions: Plant No. 19 Zanthoxylum piperitum, One month
# Description: as §1
# Viburnum dilatatum = assay: as above; conditions: Plant No. 21 Viburnum dilatatum, One month
# Description: as §1
# Rubus palmatus = assay: as above; conditions: Plant No. 18 Rubus palmatus, One month
# Description: as §1
# Castanea crenata = assay: as above; conditions: Plant No. 8 Castanea crenata, One month
# Description: as §1
# Pteridium aquilinum = assay: as above; conditions: Plant No. 20 Pteridium aquilinum, One month
# Description: as §1
# Daucus carota = assay: Foliage treatment (Example 8); conditions: Plant No. 29 Daucus carota
# Protocol: (§2) Aqueous solutions of Phosalacine (Na salt) at different concentrations were applied at a rate of 1500 liters per hectare to naturally occurring plants or plants which were cultured on plates as shown in the following Table at certain stages of growth. […] One month after the foliage treatment, the inhibition of regrowth of the plants was visually investigated.
# Rumex obtusifolius = assay: Foliage treatment (Example 8); conditions: Plant No. 14 Rumex obtusifolius
# Protocol: as §2
# Imperata cyrindrica = assay: Foliage treatment (Example 8); conditions: Plant No. 15 Imperata cyrindrica
# Protocol: as §2
# Oryzae sativa = assay: Foliage treatment (Example 8); conditions: Plant No. 25 Oryzae sativa
# Protocol: as §2
# Raphanus sativus = assay: Foliage treatment (Example 8); conditions: Plant No. 32 Raphanus sativus
# Protocol: as §2
# Helianthus tuberosus = assay: Foliage treatment (Example 8); conditions: Plant No. 12 Helianthus tuberosus
# Protocol: as §2
# Solanum melongena = assay: Foliage treatment (Example 8); conditions: Plant No. 31 Solanum melongena
# Protocol: as §2
# Cayratia japonica = assay: Foliage treatment (Example 8); conditions: Plant No. 13 Cayratia japonica
# Protocol: as §2
# Digitaria adscendens = assay: Foliage treatment (Example 8); conditions: Plant No. 10 Digitaria adscendens
# Protocol: as §2
# Triticum aestivum = assay: Foliage treatment (Example 8); conditions: Plant No. 26 Triticum aestivum
# Protocol: as §2
# Pueraria lobata = assay: Foliage treatment (Example 8); conditions: Plant No. 16 Pueraria lobata
# Protocol: as §2
# Pleioblastus chino = assay: Foliage treatment (Example 8); conditions: Plant No. 11 Pleioblastus chino
# Protocol: as §2
smiles,measurement,setting,value
CC(C)C[C@H](NC(=O)[C@H](C)NC(=O)[C@@H](N)CCP(C)(=O)O)C(=O)O [Phosalacine (Na salt)],"damage to weeds and brush, scale 0 to 5",[1]; 0.05%,3
same,"damage to weeds and brush, scale 0 to 5",[1]; 0.1%,5
same,"damage to weeds and brush, scale 0 to 5",[1]; 0.2%,5
same,"damage to weeds and brush, scale 0 to 5",Smilax china; 0.05%,3
same,"damage to weeds and brush, scale 0 to 5",Smilax china; 0.1%,5
same,"damage to weeds and brush, scale 0 to 5",Smilax china; 0.2%,5
same,"damage to weeds and brush, scale 0 to 5",Zanthoxylum piperitum; 0.05%,3
same,"damage to weeds and brush, scale 0 to 5",Zanthoxylum piperitum; 0.1%,5
same,"damage to weeds and brush, scale 0 to 5",Zanthoxylum piperitum; 0.2%,5
same,"damage to weeds and brush, scale 0 to 5",Viburnum dilatatum; 0.05%,3
same,"damage to weeds and brush, scale 0 to 5",Viburnum dilatatum; 0.1%,5
same,"damage to weeds and brush, scale 0 to 5",Viburnum dilatatum; 0.2%,5
same,"damage to weeds and brush, scale 0 to 5",Rubus palmatus; 0.05%,3
same,"damage to weeds and brush, scale 0 to 5",Rubus palmatus; 0.1%,5
same,"damage to weeds and brush, scale 0 to 5",Rubus palmatus; 0.2%,5
same,"damage to weeds and brush, scale 0 to 5",Castanea crenata; 0.05%,3
same,"damage to weeds and brush, scale 0 to 5",Castanea crenata; 0.1%,5
same,"damage to weeds and brush, scale 0 to 5",Castanea crenata; 0.2%,5
same,"damage to weeds and brush, scale 0 to 5",Pteridium aquilinum; 0.05%,3
same,"damage to weeds and brush, scale 0 to 5",Pteridium aquilinum; 0.1%,5
same,"damage to weeds and brush, scale 0 to 5",Pteridium aquilinum; 0.2%,5
same,"damage to the plants, scale 0 to 5","Daucus carota; 0.05%, 7 days",3
same,"damage to the plants, scale 0 to 5","Daucus carota; 0.05%, 14 days",4
same,"damage to the plants, scale 0 to 5","Daucus carota; 0.1%, 7 days",5
same,"damage to the plants, scale 0 to 5","Daucus carota; 0.1%, 14 days",5
same,"damage to the plants, scale 0 to 5","Rumex obtusifolius; 0.05%, 7 days",3
same,"damage to the plants, scale 0 to 5","Rumex obtusifolius; 0.05%, 14 days",4
same,"damage to the plants, scale 0 to 5","Rumex obtusifolius; 0.1%, 7 days",5
same,"damage to the plants, scale 0 to 5","Rumex obtusifolius; 0.1%, 14 days",5
same,"damage to the plants, scale 0 to 5","Imperata cyrindrica; 0.05%, 7 days",3
same,"damage to the plants, scale 0 to 5","Imperata cyrindrica; 0.05%, 14 days",4
same,"damage to the plants, scale 0 to 5","Imperata cyrindrica; 0.1%, 7 days",5
same,"damage to the plants, scale 0 to 5","Imperata cyrindrica; 0.1%, 14 days",5
same,"damage to the plants, scale 0 to 5","Oryzae sativa; 0.05%, 7 days",3
same,"damage to the plants, scale 0 to 5","Oryzae sativa; 0.05%, 14 days",4
same,"damage to the plants, scale 0 to 5","Oryzae sativa; 0.1%, 7 days",5
same,"damage to the plants, scale 0 to 5","Oryzae sativa; 0.1%, 14 days",5
same,"damage to the plants, scale 0 to 5","Raphanus sativus; 0.05%, 7 days",3
same,"damage to the plants, scale 0 to 5","Raphanus sativus; 0.05%, 14 days",4
same,"damage to the plants, scale 0 to 5","Raphanus sativus; 0.1%, 7 days",5
same,"damage to the plants, scale 0 to 5","Raphanus sativus; 0.1%, 14 days",5
same,"damage to the plants, scale 0 to 5","Helianthus tuberosus; 0.05%, 7 days",3
same,"damage to the plants, scale 0 to 5","Helianthus tuberosus; 0.05%, 14 days",4
same,"damage to the plants, scale 0 to 5","Helianthus tuberosus; 0.1%, 7 days",5
same,"damage to the plants, scale 0 to 5","Helianthus tuberosus; 0.1%, 14 days",5
same,"damage to the plants, scale 0 to 5","Solanum melongena; 0.05%, 7 days",3
same,"damage to the plants, scale 0 to 5","Solanum melongena; 0.05%, 14 days",5
same,"damage to the plants, scale 0 to 5","Solanum melongena; 0.1%, 7 days",5
same,"damage to the plants, scale 0 to 5","Solanum melongena; 0.1%, 14 days",5
same,"damage to the plants, scale 0 to 5","Cayratia japonica; 0.05%, 7 days",3
same,"damage to the plants, scale 0 to 5","Cayratia japonica; 0.05%, 14 days",4
same,"damage to the plants, scale 0 to 5","Cayratia japonica; 0.1%, 7 days",5
same,"damage to the plants, scale 0 to 5","Cayratia japonica; 0.1%, 14 days",5
same,"damage to the plants, scale 0 to 5","Digitaria adscendens; 0.05%, 7 days",3
same,"damage to the plants, scale 0 to 5","Digitaria adscendens; 0.05%, 14 days",4
same,"damage to the plants, scale 0 to 5","Digitaria adscendens; 0.1%, 7 days",5
same,"damage to the plants, scale 0 to 5","Digitaria adscendens; 0.1%, 14 days",5
same,"damage to the plants, scale 0 to 5","Triticum aestivum; 0.05%, 7 days",3
same,"damage to the plants, scale 0 to 5","Triticum aestivum; 0.05%, 14 days",4
same,"damage to the plants, scale 0 to 5","Triticum aestivum; 0.1%, 7 days",5
same,"damage to the plants, scale 0 to 5","Triticum aestivum; 0.1%, 14 days",5
same,"damage to the plants, scale 0 to 5","Pueraria lobata; 0.05%, 7 days",3
same,"damage to the plants, scale 0 to 5","Pueraria lobata; 0.05%, 14 days",4
same,"damage to the plants, scale 0 to 5","Pueraria lobata; 0.1%, 7 days",5
same,"damage to the plants, scale 0 to 5","Pueraria lobata; 0.1%, 14 days",5
same,"damage to the plants, scale 0 to 5","Pleioblastus chino; 0.05%, 7 days",3
same,"damage to the plants, scale 0 to 5","Pleioblastus chino; 0.05%, 14 days",4
same,"damage to the plants, scale 0 to 5","Pleioblastus chino; 0.1%, 7 days",5
same,"damage to the plants, scale 0 to 5","Pleioblastus chino; 0.1%, 14 days",5
